Patent US20100003250A1, “(2-ARYL-7H-PYRROLO[2,3-D]PYRIMIDIN-4-YL)MORPHOLINE COMPOUNDS, THEIR USE AS MTOR KINASE AND PI3 KINASE INHIBITORS, AND THEIR SYNTHESES” (Wyeth, priority 2008, published 2010)
pIC50: −log10 of the molar value.

How the values were obtained:
Format in all cases: biochemical
[1] = target: PI3Kγ (Homo sapiens, UniProt P48736); test: PI3K-gamma fluorescence polarization assay; details: 20 μM PIP2, 25 μM ATP; read-out: PI3Kγ Median IC50
Experimental: PI3K-alpha and PI3K-gamma Fluorescence Polarization Assay Protocols
The reaction buffer was 20 mM HEPES pH 7.5, 2 mM MgCl2, 0.05% CHAPS, and 0.01% βME (added fresh). The substrate solution was 40 μM PIP2 (diC8, Echelon, Salt Lake City Utah cat # P-4508, 1 mM in water) and 50 μM ATP in the reaction buffer. Nunc 384-well black polypropylene fluorescent plates were used for PI3K assays. The assay is run by putting 9.5 μl of freshly diluted enzyme in the reaction buffer per well, adding 0.5 μl of diluted drug or DMSO, and mixing. Then 10 μl of the substrate solution is added to each well to start the reaction. A final concentration of 20 μM PIP2 and 25 μM ATP in the reaction was used. Reactions were allowed to proceed for 30-60 minutes at room temperature. After 30-60 minutes, 20 μl of a solution of 10 nM TAMRA detector (Red detector probe-Echelon) and 2.5 μM of GST-murineGRP (1.5 mg/ml in 17% glycerol) was added per well to stop the reaction. The resulting solution was mixed well and allowed to stand for 90-110 minutes before reading plate. Assay Plates were read on Perkin-Elmer Envision plate readers with appropriate filters for Tamra [BODIPY-TMRI(1,3,4,5)P4]. Data obtained were used to calculate enzymatic activity and enzyme inhibition by inhibitor compounds. It is important to keep Red probe solutions dark. This procedure is adapted from Echelon Biosciences Inc procedure for their PI3-Kinase fluorescence polarization activity Assay kit Product number K-1100.

[2] = target: PI3Kα (Homo sapiens, UniProt P42336); test: PI3K-alpha fluorescence polarization assay; details: 20 μM PIP2, 25 μM ATP; read-out: PI3Kα Median IC50
[3] = target: T1, mTOR Kinase (FLAG-TOR) (Homo sapiens, UniProt P42345); test: mTOR kinase assay, purified enzyme, DELFIA format; details: 100 μM ATP, 1.25 μM His6-S6K; read-out: mTOR Kinase Median IC50
T1 construct: FLAG

Chain of PI3Kγ (P48736 whole entry, species assumed): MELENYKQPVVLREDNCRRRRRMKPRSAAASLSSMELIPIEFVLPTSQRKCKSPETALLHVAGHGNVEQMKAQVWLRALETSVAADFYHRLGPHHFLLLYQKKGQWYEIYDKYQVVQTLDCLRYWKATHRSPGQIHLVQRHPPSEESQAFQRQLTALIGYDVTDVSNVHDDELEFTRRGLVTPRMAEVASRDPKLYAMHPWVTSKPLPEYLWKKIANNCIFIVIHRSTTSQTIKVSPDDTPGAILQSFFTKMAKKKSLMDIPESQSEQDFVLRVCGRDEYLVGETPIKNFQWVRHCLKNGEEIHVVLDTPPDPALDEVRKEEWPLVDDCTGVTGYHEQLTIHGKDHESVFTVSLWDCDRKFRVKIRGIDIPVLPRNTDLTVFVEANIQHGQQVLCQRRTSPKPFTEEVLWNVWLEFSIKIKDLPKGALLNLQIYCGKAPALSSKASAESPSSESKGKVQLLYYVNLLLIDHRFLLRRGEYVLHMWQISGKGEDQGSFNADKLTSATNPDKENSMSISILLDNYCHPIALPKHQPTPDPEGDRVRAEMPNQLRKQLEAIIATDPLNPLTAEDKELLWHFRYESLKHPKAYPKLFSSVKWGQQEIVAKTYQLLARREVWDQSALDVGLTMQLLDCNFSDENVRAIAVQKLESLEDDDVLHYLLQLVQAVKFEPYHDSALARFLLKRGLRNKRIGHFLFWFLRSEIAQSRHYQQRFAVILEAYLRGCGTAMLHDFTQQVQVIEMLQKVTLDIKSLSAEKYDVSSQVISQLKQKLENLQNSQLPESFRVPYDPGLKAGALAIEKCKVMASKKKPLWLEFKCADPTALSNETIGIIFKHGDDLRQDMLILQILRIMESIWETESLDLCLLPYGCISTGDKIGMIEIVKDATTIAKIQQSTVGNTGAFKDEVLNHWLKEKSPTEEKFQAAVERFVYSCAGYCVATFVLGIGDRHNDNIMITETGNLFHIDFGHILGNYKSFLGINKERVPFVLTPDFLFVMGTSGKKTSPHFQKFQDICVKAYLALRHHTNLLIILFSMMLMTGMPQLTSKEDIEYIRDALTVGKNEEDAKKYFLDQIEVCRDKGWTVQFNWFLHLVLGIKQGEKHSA
Chain of PI3Kα (P42336 whole entry, species assumed): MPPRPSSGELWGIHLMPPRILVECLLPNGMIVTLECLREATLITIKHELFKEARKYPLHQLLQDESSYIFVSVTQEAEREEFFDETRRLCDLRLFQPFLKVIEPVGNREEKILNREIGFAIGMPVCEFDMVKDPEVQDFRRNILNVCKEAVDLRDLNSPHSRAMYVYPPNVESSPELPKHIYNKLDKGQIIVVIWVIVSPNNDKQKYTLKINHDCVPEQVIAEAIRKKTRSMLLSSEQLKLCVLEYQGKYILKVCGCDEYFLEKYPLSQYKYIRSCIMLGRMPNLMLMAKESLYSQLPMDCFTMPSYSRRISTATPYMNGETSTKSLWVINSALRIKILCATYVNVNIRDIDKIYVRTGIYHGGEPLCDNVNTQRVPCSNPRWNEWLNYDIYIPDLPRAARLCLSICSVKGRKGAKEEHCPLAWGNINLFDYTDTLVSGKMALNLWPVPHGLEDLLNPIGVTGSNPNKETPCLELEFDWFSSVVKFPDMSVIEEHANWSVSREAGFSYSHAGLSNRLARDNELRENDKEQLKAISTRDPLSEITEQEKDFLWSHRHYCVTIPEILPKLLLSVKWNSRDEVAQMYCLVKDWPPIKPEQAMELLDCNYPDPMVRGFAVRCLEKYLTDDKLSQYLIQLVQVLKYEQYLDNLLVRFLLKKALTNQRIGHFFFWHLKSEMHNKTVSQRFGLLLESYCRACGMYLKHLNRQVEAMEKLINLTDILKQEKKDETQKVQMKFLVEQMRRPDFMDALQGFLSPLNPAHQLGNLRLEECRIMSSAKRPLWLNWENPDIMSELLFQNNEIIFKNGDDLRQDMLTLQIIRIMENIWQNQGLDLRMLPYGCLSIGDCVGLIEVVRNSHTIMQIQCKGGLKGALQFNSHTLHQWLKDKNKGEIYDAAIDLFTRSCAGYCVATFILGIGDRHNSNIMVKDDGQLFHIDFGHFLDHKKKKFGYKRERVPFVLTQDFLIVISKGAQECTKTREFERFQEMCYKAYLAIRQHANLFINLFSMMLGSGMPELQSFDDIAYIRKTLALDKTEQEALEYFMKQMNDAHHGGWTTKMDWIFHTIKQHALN
Chain of PI3Kα (P27986 whole entry partner, species assumed): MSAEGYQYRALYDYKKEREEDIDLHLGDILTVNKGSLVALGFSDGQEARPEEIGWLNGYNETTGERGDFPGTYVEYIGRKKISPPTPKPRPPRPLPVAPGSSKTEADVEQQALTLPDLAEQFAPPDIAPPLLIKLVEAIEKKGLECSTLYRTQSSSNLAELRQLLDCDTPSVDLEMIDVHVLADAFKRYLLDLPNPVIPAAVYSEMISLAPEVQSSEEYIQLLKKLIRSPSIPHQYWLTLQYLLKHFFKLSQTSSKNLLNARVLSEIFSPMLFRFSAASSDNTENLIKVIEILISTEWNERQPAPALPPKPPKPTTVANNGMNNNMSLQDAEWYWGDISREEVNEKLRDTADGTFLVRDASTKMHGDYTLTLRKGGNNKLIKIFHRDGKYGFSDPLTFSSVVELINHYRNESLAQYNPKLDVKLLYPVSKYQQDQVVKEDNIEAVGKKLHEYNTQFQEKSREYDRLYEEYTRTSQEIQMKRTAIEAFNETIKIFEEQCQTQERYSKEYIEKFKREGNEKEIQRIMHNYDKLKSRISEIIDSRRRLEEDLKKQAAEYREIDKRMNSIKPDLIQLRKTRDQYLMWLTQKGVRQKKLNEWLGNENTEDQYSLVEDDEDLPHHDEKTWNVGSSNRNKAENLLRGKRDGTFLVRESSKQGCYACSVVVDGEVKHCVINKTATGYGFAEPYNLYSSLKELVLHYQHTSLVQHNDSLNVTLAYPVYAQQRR

pIC50 [1] | pIC50 [2] | pIC50 [3] | SMILES
6.77 | – | – | COC(Cn1ccc2c(N3CCOCC3)nc(-c3ccc(NC(=O)Nc4ccncc4)cc3)nc21)OC [Compound 21, 1-{4-[7-(2,2-dimethoxyethyl)-4-morpholin-4-yl-7H-pyrrolo[2,3-d]pyrimidin-2-yl]phenyl}-3-pyridin-4-ylurea]
4.92 | 5.72 | 7.33 | CCn1cc(CN(C)C)c2c(N3CCOCC3)nc(-c3ccc(NC(=O)NC)cc3)nc21 [Compound 97, 1-(4-{5-[(dimethylamino)methyl]-7-ethyl-4-morpholin-4-yl-7H-pyrrolo[2,3-d]pyrimidin-2-yl}phenyl)-3-methylurea]
7.72 | 8.85 | 8.76 | CCn1ccc2c(N3CCOCC3)nc(-c3ccc(NC(=O)Nc4ccc(C(=O)N5CCN(C)CC5)cc4)cc3)nc21 [Compound 63, 1-[4-(7-ethyl-4-morpholin-4-yl-7H-pyrrolo[2,3-d]pyrimidin-2-yl)phenyl]-3-{4-[(4-methylpiperazin-1-yl)carbonyl]phenyl}urea]
6.38 | 7.39 | 7.48 | O=C(Nc1ccncc1)Nc1ccc(-c2nc(N3CCOCC3)c3ccn(CCNc4ccc(F)cc4)c3n2)cc1 [Compound 25, 1-[4-(7-{2-[(4-fluorophenyl)amino]ethyl}-4-morpholin-4-yl-7H-pyrrolo[2,3-d]pyrimidin-2-yl)phenyl]-3-pyridin-4-ylurea]
8.15 | – | – | O=CCn1ccc2c(N3CCOCC3)nc(-c3ccc(NC(=O)Nc4ccncc4)cc3)nc21 [Compound 22, 1-{4-[4-morpholin-4-yl-7-(2-oxoethyl)-7H-pyrrolo[2,3-d]pyrimidin-2-yl]phenyl}-3-pyridin-4-ylurea]
< 5.00 | 5.53 | < 5.43 | CN(C)CCn1ccc2c(N3CCOCC3)nc(-c3ccc(N)cc3)nc21 [Compound 8, 4-{7-[2-(dimethylamino)ethyl]-4-morpholin-4-yl-7H-pyrrolo[2,3-d]pyrimidin-2-yl}aniline]
7.09 | 7.92 | 9.03 | CC(C)N1CCN(C(=O)c2ccc(NC(=O)Nc3ccc(-c4nc(N5CCOCC5)c5ccn(C(C)C)c5n4)cc3)cc2)CC1 [Compound 93, 1-{4-[7-(1-methylethyl)-4-morpholin-4-yl-7H-pyrrolo[2,3-d]pyrimidin-2-yl]phenyl}-3-(4-{[4-(1-methylethyl)piperazin-1-yl]carbonyl}phenyl)urea]
6.15 | – | < 6.10 | CN(C)CCn1ccc2c(N3CCOCC3)nc(-c3cccc(CO)c3)nc21 [Compound 7, (3-{7-[2-(dimethylamino)ethyl]-4-morpholin-4-yl-7H-pyrrolo[2,3-d]pyrimidin-2-yl}phenyl)methanol]
6.47 | – | – | Oc1cccc(-c2nc(N3CCOCC3)c3cc[nH]c3n2)c1 [Compound 2, 3-(4-morpholin-4-yl-7H-pyrrolo[2,3-d]pyrimidin-2-yl)phenol]
6.99 | – | 8.53 | CN(C)CCn1ccc2c(N3CCOCC3)nc(-c3ccc(NC(=O)Nc4cccnc4)cc3)nc21 [Compound 9, 1-(4-{7-[2-(dimethylamino)ethyl]-4-morpholin-4-yl-7H-pyrrolo[2,3-d]pyrimidin-2-yl}phenyl)-3-pyridin-3-ylurea]
6.20 | – | – | CN(C)CCn1ccc2c(N3CCOCC3)nc(-c3ccc(NC(=O)Nc4ccccn4)cc3)nc21 [Compound 11, 1-(4-{7-[2-(dimethylamino)ethyl]-4-morpholin-4-yl-7H-pyrrolo[2,3-d]pyrimidin-2-yl}phenyl)-3-pyridin-2-ylurea]
6.12 | – | – | OCc1cccc(-c2nc(N3CCOCC3)c3cc[nH]c3n2)c1 [Compound 1, [3-(4-morpholin-4-yl-7H-pyrrolo[2,3-d]pyrimidin-2-yl)phenyl]methanol]
6.75 | – | 8.11 | CN(C)CCn1ccc2c(N3CCOCC3)nc(-c3ccc(NC(=O)Nc4ccc(F)cc4)cc3)nc21 [Compound 13, 1-(4-{7-[2-(dimethylamino)ethyl]-4-morpholin-4-yl-7H-pyrrolo[2,3-d]pyrimidin-2-yl}phenyl)-3-(4-fluorophenyl)urea]
6.09 | – | 7.48 | CNC(=O)Nc1ccc(-c2nc(N3CCOCC3)c3ccn(CCN(C)C)c3n2)cc1 [Compound 17, 1-(4-{7-[2-(dimethylamino)ethyl]-4-morpholin-4-yl-7H-pyrrolo[2,3-d]pyrimidin-2-yl}phenyl)-3-methylurea]
7.20 | – | – | O=C(Nc1ccncc1)Nc1ccc(-c2nc(N3CCOCC3)c3ccn(CC(F)(F)F)c3n2)cc1 [Compound 36, 1-{4-[4-morpholin-4-yl-7-(2,2,2-trifluoroethyl)-7H-pyrrolo[2,3-d]pyrimidin-2-yl]phenyl}-3-pyridin-4-ylurea]
7.44 | 7.96 | – | CN(C)CCn1ccc2c(N3CCOCC3)nc(-c3ccc(NC(=O)Nc4ccncc4)cc3)nc21 [Compound 12, 1-(4-{7-[2-(dimethylamino)ethyl]-4-morpholin-4-yl-7H-pyrrolo[2,3-d]pyrimidin-2-yl}phenyl)-3-pyridin-4-ylurea]
6.11 | – | – | O=C(Nc1ccncc1)Nc1ccc(-c2nc(N3CCOCC3)c3ccn(CCN4CCCCC4)c3n2)cc1 [Compound 24, 1-{4-[4-morpholin-4-yl-7-(2-piperidin-1-ylethyl)-7H-pyrrolo[2,3-d]pyrimidin-2-yl]phenyl}-3-pyridin-4-ylurea]
6.27 | – | 7.52 | CCNC(=O)Nc1ccc(-c2nc(N3CCOCC3)c3ccn(CCN(C)C)c3n2)cc1 [Compound 16, 1-(4-{7-[2-(dimethylamino)ethyl]-4-morpholin-4-yl-7H-pyrrolo[2,3-d]pyrimidin-2-yl}phenyl)-3-ethylurea]
7.19 | – | – | O=C(Nc1ccncc1)Nc1ccc(-c2nc(N3CCOCC3)c3cc[nH]c3n2)cc1 [Compound 4, 1-[4-(4-morpholin-4-yl-7H-pyrrolo[2,3-d]pyrimidin-2-yl)phenyl]-3-pyridin-4-ylurea]
7.40 | 8.40 | – | O=C(Nc1ccncc1)Nc1ccc(-c2nc(N3CCOCC3)c3ccn(CCO)c3n2)cc1 [Compound 34, 1-{4-[7-(2-hydroxyethyl)-4-morpholin-4-yl-7H-pyrrolo[2,3-d]pyrimidin-2-yl]phenyl}-3-pyridin-4-ylurea]
7.85 | – | 9.32 | CN(C)CCN(C)C(=O)c1ccc(NC(=O)Nc2ccc(-c3nc(N4CCOCC4)c4ccn(CC(F)(F)F)c4n3)cc2)cc1 [Compound 51, N-[2-(dimethylamino)ethyl]-N-methyl-4-[({4-[4-morpholin-4-yl-7-(2,2,2-trifluoroethyl)-7H-pyrrolo[2,3-d]pyrimidin-2-yl]phenyl}carbamoyl)amino]benzamide]
6.37 | – | – | CN(C)CCNCCn1ccc2c(N3CCOCC3)nc(-c3ccc(NC(=O)Nc4ccncc4)cc3)nc21 [Compound 27, 1-{4-[7-(2-{[2-(dimethylamino)ethyl]amino}ethyl)-4-morpholin-4-yl-7H-pyrrolo[2,3-d]pyrimidin-2-yl]phenyl}-3-pyridin-4-ylurea]
5.78 | – | < 6.10 | CN(C)CCn1ccc2c(N3CCOCC3)nc(-c3cccc(O)c3)nc21 [Compound 6, 3-{7-[2-(dimethylamino)ethyl]-4-morpholin-4-yl-7H-pyrrolo[2,3-d]pyrimidin-2-yl}phenol]
7.44 | – | – | O=C(Nc1ccncc1)Nc1ccc(-c2nc(N3CCOCC3)c3ccn(CCN4CCNCC4)c3n2)cc1 [Compound 29, 1-{4-[4-morpholin-4-yl-7-(2-piperazin-1-ylethyl)-7H-pyrrolo[2,3-d]pyrimidin-2-yl]phenyl}-3-pyridin-4-ylurea]
6.50 | – | 7.62 | CN1CCN(CCn2ccc3c(N4CCOCC4)nc(-c4ccc(NC(=O)Nc5ccncc5)cc4)nc32)CC1 [Compound 28, 1-(4-{7-[2-(4-methylpiperazin-1-yl)ethyl]-4-morpholin-4-yl-7H-pyrrolo[2,3-d]pyrimidin-2-yl}phenyl)-3-pyridin-4-ylurea]
6.43 | – | – | O=C(Nc1ccncc1)Nc1ccc(-c2nc(N3CCOCC3)c3ccn(CCN4CCCC4)c3n2)cc1 [Compound 23, 1-{4-[4-morpholin-4-yl-7-(2-pyrrolidin-1-ylethyl)-7H-pyrrolo[2,3-d]pyrimidin-2-yl]phenyl}-3-pyridin-4-ylurea]
7.57 | – | 8.77 | CN(C)C1CCN(C(=O)c2ccc(NC(=O)Nc3ccc(-c4nc(N5CCOCC5)c5ccn(CC(F)(F)F)c5n4)cc3)cc2)CC1 [Compound 57, 1-(4-{[4-(dimethylamino)piperidin-1-yl]carbonyl}phenyl)-3-{4-[4-morpholin-4-yl-7-(2,2,2-trifluoroethyl)-7H-pyrrolo[2,3-d]pyrimidin-2-yl]phenyl}urea]
